Measured values reported in patent US20050014182A1, “Use of calpain for identifying compounds that modulate pain” (Aventis Pharma Deutschland GmbH, priority 2003, published 2005).
“Also recorded” adds a separate entry of the source. Where two headings read alike, the source gives them in different places. Where a SMILES comes first, the peptide text is derived from it. The star is where a group is joined. Cbz = O=C(OCc1ccccc1)*

What was measured:
[1] = system: zymosan induced thermal hyperalgesia; experiment: Zymosan induced thermal hyperalgesia (paw withdrawal latency, Hargreaves); assay type: in vivo, rat; details: for thermal hyperalgesia (paw withdrawal latency): rats, 25 mg/kg i.p., 1.25 mg zymosan intraplantar, 25 mg/kg
Description: Unilateral hind paw inflammation and paw oedema was induced by subcutaneous injection of 1.25 mg zymosan (Sigma, München, Germany), suspended in 100 μl phosphate buffered saline (12.5 mg/ml), into the midplantar region of the right hind paw. After 24, 48 or 96 h animals were anaesthetized and killed by cardiac puncture. Spinal cords were excised, directly frozen in liquid nitrogen and then kept at −80° C. until further analysis. Nociceptive paw withdrawal latency to radial heat was assessed according to Hargreaves (Hargreaves et al., 1988), using a commercially available special device (Ugo Basile, Varese, Italy). Rats were placed in transparent plastic chambers (18×29×12.5 cm) on a metal grid (5×5 mm). The heat source consisting of a high projector lamp bulb was focused on the mid-plantar surface of the hind paw. The bulb and an electronic timer were simultaneously activated at the test start, and both were automatically inactivated when a photocell detected a paw withdrawal in response to the heat. Paw withdrawal latencies (PWL) of the right and left paw (treated and untreated paw) were recorded before and every 60 min up to 8 h and 24 h after zymosan injection. […] Six animals were used for each treatment group. (Controls received 1 ml of vehicle.) Treatments were randomly allocated to animals and the observers were unaware of treatment allocations. The percent relative difference in paw withdrawal latency (ΔPWL) between the zymosan treated right and the untreated left hind paw, calculated as: ΔPWL=(right−left)/left×100, was used to asses antinociceptive effects. […] The areas under the ΔPWL versus time curves (AUCΔPWL) as well as the areas under the ΔPV versus time curves (AUCΔPV) were calculated using the linear trapezoidal rule. […] Effects of study medications were assessed by submitting the AUCΔPV from 0-8 h to univariate analysis of variance (ANOVA) with subsequent t-tests employing a Bonferroni […]-correction for multiple comparisons. Statistical significance of ΔPWL was calculated by unpaired Student's t-test (zymosan-treated rats versus control rats). □ was set at 0.05.

[2] = system: zymosan induced paw oedema; experiment: Zymosan induced paw inflammation model (paw oedema); assay type: in vivo, rat; details: for paw oedema (AUC of paw volume increase 0-8 h) versus control: 25 mg/kg i.p., 1.25 mg zymosan intraplantar, 25 mg/kg
Description: Unilateral hind paw inflammation and paw oedema was induced by subcutaneous injection of 1.25 mg zymosan (Sigma, München, Germany), suspended in 100 μl phosphate buffered saline (12.5 mg/ml), into the midplantar region of the right hind paw. After 24, 48 or 96 h animals were anaesthetized and killed by cardiac puncture. Spinal cords were excised, directly frozen in liquid nitrogen and then kept at −80° C. until further analysis. Paw oedema was induced by zymosan injection as described above. The paw volume was measured before and 0.25, 0.5, 1, 2, 4, 6, 8 and 24 h after zymosan injection using a plethysmometer (Ugo Basile, Varese, Italy). Six rats per group were used. At each time point five measurements of the paw volume were taken. The average of these five measurements was used for further analysis. […] Six animals were used for each treatment group. (Controls received 1 ml of vehicle.) Treatments were randomly allocated to animals and the observers were unaware of treatment allocations. The percent relative difference in paw withdrawal latency (ΔPWL) between the zymosan treated right and the untreated left hind paw, calculated as: ΔPWL=(right−left)/left×100, was used to asses antinociceptive effects. To evaluate anti-inflammatory effects, the relative difference between the paw volume before and after zymosan injection (ΔPV) was used. The areas under the ΔPWL versus time curves (AUCΔPWL) as well as the areas under the ΔPV versus time curves (AUCΔPV) were calculated using the linear trapezoidal rule. Statistical evaluation was done by SPSS 9.02 for Windows. Effects of study medications were assessed by submitting the AUCΔPV from 0-8 h to univariate analysis of variance (ANOVA) with subsequent t-tests employing a Bonferroni […]-correction for multiple comparisons. Statistical significance of ΔPWL was calculated by unpaired Student's t-test (zymosan-treated rats versus control rats). □ was set at 0.05.

calpain [3] = experiment: Calpain inhibition (statement, no method given); assay type: biochemical; details: statement without data
calpain [4] = details: described in literature, cited from earlier work
m-calpain = experiment: Calpain protein expression in spinal cord after zymosan treatment (anti-m-calpain immunohistochemistry); assay type: in vivo, rat; details: 96 h after zymosan, pre-treatment with inhibitor
Description: (§1) Unilateral hind paw inflammation and paw oedema was induced by subcutaneous injection of 1.25 mg zymosan (Sigma, München, Germany), suspended in 100 μl phosphate buffered saline (12.5 mg/ml), into the midplantar region of the right hind paw. After 24, 48 or 96 h animals were anaesthetized and killed by cardiac puncture. Spinal cords were excised, directly frozen in liquid nitrogen and then kept at −80° C. until further analysis.
(§2) Calpain inhibitor III (MDL 28170) (Calbiochem, Schwalbach/Ts., Germany) was dissolved in PEG 400/DMSO (1:1) at a concentration of 10 mg/ml. Animals received calpain inhibitor III either as a 12.5 mg/kg or a 25 mg/kg intraperitoneal (i.p.) bolus injection 20 min prior to the intraplantar injection of zymosan. Six animals were used for each treatment group. (Controls received 1 ml of vehicle.) Treatments were randomly allocated to animals and the observers were unaware of treatment allocations.
For immunohistochemical staining, the lumbal spinal cord segments were excised, directly frozen in liquid nitrogen and stored at −80° C. Fresh-frozen tissue sections (14 μm) were cut in a cryostat, mounted on gelatin-subbed slides, and fixed for 10 min in 4% paraformaldehyd in PBS (pH 7.4). Slides were washed with three 10-min washes in PBS and treated for 15 min with PBS containing 0.1% Triton-X 100. […]

[5] = system: neurofilament light chain (NF-L); experiment: Neurofilament light chain (NF-L) degradation in spinal cord after zymosan treatment (immunohistochemistry); assay type: in vivo, rat; details: for NF-L immunofluorescence in spinal cord slices: 96 h after zymosan, pre-treatment with inhibitor; for zymosan induced neurofilament degradation: rats, 12.5 mg/kg and 25 mg/kg i.p.
Description: as §1, §2
For immunohistochemical staining, the lumbal spinal cord segments were excised, directly frozen in liquid nitrogen and stored at −80° C. Fresh-frozen tissue sections (14 μm) were cut in a cryostat, mounted on gelatin-subbed slides, and fixed for 10 min in 4% paraformaldehyd in PBS (pH 7.4). Slides were washed with three 10-min washes in PBS and treated for 15 min with PBS containing 0.1% Triton-X 100. The sections were then blocked in 3% BSA in PBS for 1 h to reduce nonspecific binding and then incubated with pimary monoclonal antibody, anti-NFL (1:100; Sigma) and anti-m-calpain (1:50; Affinity BioReagents) for 1 h at 37° C. NF-L and m-calpain were flourescently labelled with a 1 h incubation at 37° C. with Cy3-conjugated secondary antibody (1:600; Sigma). Slides were washed with three 10-min washes in PBS after each incubation. Primary and secondary antibody incubations were performed in PBS containing 1% BSA. Slides were mounted with SlowFade Light Antifade mounting media according to manufacturer's protocol.
Immunohistochemistry was applied to determine the protein levels of neurofilament-L and calpain in rat spinal cord slices after zymosan treatment with and without additional administration of calpain inhibitor III.

calpain [6] = experiment: Calpain activity of spinal cord extracts of zymosan treated rats (fluorometric cleavage of Ac-LLY-AFC); assay type: in vivo, rat
Description: as §1, §2

[7] = following systemic administration; cited from earlier work
[8] = tested as described for calpain inhibitor III
[9] = listed as Calpain inhibitor III

Compound | effects on nociception [1, 8] | effects on inflammation [2, 8] | calpain inhibition (calpain [3]) | calpain inhibition (calpain I and II) (calpain [4]) | calpain inhibition (calpain I and II) (calpain [4]; listed as MDL 28170) | thermal hyperalgesia (paw withdrawal latency) [1] | thermal hyperalgesia (paw withdrawal latency) [1, 9] | calpain (m-calpain) protein expression in spinal cord (m-calpain) | calpain (m-calpain) protein expression in spinal cord (m-calpain; listed as MDL-28170) | paw oedema (AUC of paw volume increase 0-8 h) versus control ([2]; rats) | paw oedema (AUC of paw volume increase 0-8 h) versus control ([2]; rats, listed as Calpain inhibitor III) | paw inflammation (paw volume increase) ([2]; rats, doses of 12.5 and 25 mg/kg i.p.) | NF-L immunofluorescence in spinal cord slices [5] | NF-L immunofluorescence in spinal cord slices [5, 9] | zymosan induced neurofilament degradation [5] | zymosan induced neurofilament degradation ([5]; listed as MDL 28170) | zymosan-induced protease (calpain) activation in the spinal cord (calpain [6]; rats, 25 mg/kg i.p. 20 min prior to zymosan) | calpain activity of spinal cord extracts (calpain [6]; zymosan treated rats, calpain inhibitor III 12.5 mg/kg or 25 mg/kg i.p. before zymosan (FIG. 2 legend)) | blood-brain barrier penetration [7]
CC(C)[C@H](NC(=O)OCc1ccccc1)C(=O)N[C@H](C=O)Cc1ccccc1 [MDL-102935] (Cbz-Val-Phe-aldehyde) | the same as those of MDL-28170 | the same as those of MDL-28170 | inhibitor of calpain | – | – | – | – | – | – | – | – | – | – | – | – | – | – | – | –
CC(C)[C@H](NC(=O)OCc1ccccc1)C(=O)N[C@H](C=O)Cc1ccccc1 [calpain inhibitor III, Carbobenzoxy-valinyl-phenylalaninal] (Cbz-Val-Phe-aldehyde) | – | – | – | potent, selective and cell-permeable inhibitor of calpain 1 and II | potent, specific calpain inhibitor | antinociceptive responses; also recorded: significantly higher paw withdrawal latency; also recorded: attenuates | significantly reduces thermal hyperalgesia | not altered | not affected | significantly reduced the paw edema; also recorded: statistically significant differences | significantly reduces the paw oedema | inhibited paw inflammation dose-dependently; also recorded: attenuates the development of zymosan induced paw inflammation | immunofluorescence levels comparable to control slices of untreated rats | reduced the loss of NF-L | attenuated the zymosan induced neurofilament degradation | blocked the degradation of neurofilament protein | significantly inhibited | reduced | rapidly penetrates the blood-brain barrier
COc1ccc2c(c1)c(CC(=O)O)c(C)n2C(=O)c1ccc(Cl)cc1 [indomethacin] | – | – | – | calpain inhibiting activity | – | – | – | – | – | – | – | – | – | – | – | – | – | – | –
